In US9617226B2 (AbbVie Deutschland GmbH & Co. KG, priority 2014, dated 2017):

Columns and labels:
[1] = molecular target: human vasopressin V1a receptor (Homo sapiens (Human), UniProt P37288); assay: Vasopressin V1a receptor binding assay; settings: selectivity quotient, human V1a vs human V1b
Description: The test substances were dissolved in a concentration of 5 mM M in DMSO. Further dilution of these DMSO solutions took place as described for V1b.
The membrane pellet was again homogenized in a High-Pressure-Homogenizer, Polytec 50K at 1500 PSI (Heinemann, Germany) and subsequently taken up in 50 mM Tris-HCl, pH 7.4, homogenized and stored in aliquots frozen in liquid nitrogen at −190° C.
The incubation buffer was: 50 mM Tris, 10 mM MgCl2, 0.1% BSA, pH 7.4.
Duplicate determinations were carried out.
After incubation (60 minutes at room temperature), the samples were processed as described for V1b.
The binding parameters were calculated by nonlinear regression in SAS.

[2] = molecular target: human vasopressin V1b receptor (Homo sapiens (Human), UniProt P47901); assay: biochemical
Chain of human vasopressin V1b receptor (P47901 whole entry): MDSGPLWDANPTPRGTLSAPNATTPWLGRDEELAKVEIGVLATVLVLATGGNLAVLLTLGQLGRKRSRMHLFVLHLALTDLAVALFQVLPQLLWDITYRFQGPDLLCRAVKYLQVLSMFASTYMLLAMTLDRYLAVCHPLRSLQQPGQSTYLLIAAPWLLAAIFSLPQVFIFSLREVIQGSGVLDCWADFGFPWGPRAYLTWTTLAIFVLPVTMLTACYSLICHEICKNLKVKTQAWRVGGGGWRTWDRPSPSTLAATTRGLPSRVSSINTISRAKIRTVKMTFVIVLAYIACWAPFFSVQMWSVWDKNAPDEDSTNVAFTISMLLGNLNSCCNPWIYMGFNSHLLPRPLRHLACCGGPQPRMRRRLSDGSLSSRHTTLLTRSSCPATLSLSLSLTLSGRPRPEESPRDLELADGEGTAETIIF

Chain of human vasopressin V1a receptor (P37288 whole entry): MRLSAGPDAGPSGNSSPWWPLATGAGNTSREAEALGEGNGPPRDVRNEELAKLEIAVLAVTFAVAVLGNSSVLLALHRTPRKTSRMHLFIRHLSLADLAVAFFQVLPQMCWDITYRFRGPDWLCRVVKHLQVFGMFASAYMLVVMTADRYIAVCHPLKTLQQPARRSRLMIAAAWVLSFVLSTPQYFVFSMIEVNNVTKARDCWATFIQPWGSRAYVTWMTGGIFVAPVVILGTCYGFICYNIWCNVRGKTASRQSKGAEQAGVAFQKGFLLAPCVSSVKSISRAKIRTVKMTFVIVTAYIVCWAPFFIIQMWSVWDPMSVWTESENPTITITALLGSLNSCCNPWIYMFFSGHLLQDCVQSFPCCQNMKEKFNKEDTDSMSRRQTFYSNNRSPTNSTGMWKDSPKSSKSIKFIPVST

Row | Ki(h-V1a)/Ki(h-V1b) [1] | Ki [2] [nM] | Compound
1 | +++ (>75) | 10 to 100 | CCCNC(=O)Cn1c(-c2cccc(Cl)c2)nc2ccc([C@H]3C[C@@H](CN4CCCCC4)C3)cc2c1=O [Example 28, cis-2-[2-(3-Chlorophenyl)-4-oxo-6-[3-(1-piperidylmethyl)cyclobutyl]quinazolin-3-yl]-N-propyl-acetamide]
2 | +++ (>75) | 1 to 10 | CC(C)NC(=O)Cn1c(-c2cccc(Cl)c2)nc2ccc([C@H]3C[C@@H](CN4CCCCC4)C3)cc2c1=O [Example 2a, cis-2-[2-(3-chlorophenyl)-4-oxo-6-[3-(1-piperidylmethyl)cyclobutyl]quinazolin-3-yl]-N-isopropyl-acetamide]
3 | +++ (>75) | 1 to 10 | CC(C)NC(=O)Cn1c(-c2cccc(Cl)c2)nc2ccc([C@H]3C[C@@H](CN4C[C@@H](C)O[C@@H](C)C4)C3)cc2c1=O [Example 42, cis-2-[2-(3-Chlorophenyl)-6-[3-[[(2S,6R)-2,6-dimethylmorpholin-4-yl]methyl]cyclobutyl]-4-oxo-quinazolin-3-yl]-N-isopropyl-acetamide]
4 | +++ (>75) | 1 to 10 | CC(C)NC(=O)Cn1c(-c2cccc(Cl)c2)nc2ccc([C@H]3C[C@@H](CN4CCC(F)(F)CC4)C3)cc2c1=O [Example 12, cis-2-[2-(3-Chlorophenyl)-6-[3-[(4,4-difluoro-1-piperidyl)methyl]cyclobutyl]-4-oxo-quinazolin-3-yl]-N-isopropyl-acetamide]
5 | +++ (>75) | 10 to 100 | CC(C)NC(=O)Cn1c(-c2cccc(Cl)c2)nc2ccc([C@H]3C[C@H](CN4CCCCC4)C3)cc2c1=O [Example 2b, trans-2-[2-(3-chlorophenyl)-4-oxo-6-[3-(1-piperidylmethyl)cyclobutyl]quinazolin-3-yl]-N-isopropyl-acetamide]
6 | +++ (>75) | 1 to 10 | CC(C)NC(=O)Cn1c(-c2cccc(Cl)c2)nc2ccc([C@H]3C[C@@H](CN4CC(F)C4)C3)cc2c1=O [Example 19, cis-2-[2-(3-Chlorophenyl)-6-[3-[(3-fluoroazetidin-1-yl)methyl]cyclobutyl]-4-oxo-quinazolin-3-yl]-N-isopropyl-acetamide]
7 | +++ (>75) | 1 to 10 | CC(C)NC(=O)Cn1c(-c2cccc(Cl)c2)nc2ccc([C@H]3C[C@@H](CN4CCOCC4)C3)cc2c1=O [Example 13, cis-2-[2-(3-Chlorophenyl)-6-[3-(morpholinomethyl)cyclobutyl]-4-oxo-quinazolin-3-yl]-N-isopropyl-acetamide]
8 | +++ (>75) | < 1 | CC(C)NC(=O)Cn1c(-c2cccc(Cl)c2)nc2ccc([C@H]3C[C@@H](CN4CCSCC4)C3)cc2c1=O [Example 8, cis-2-[2-(3-Chlorophenyl)-4-oxo-6-[3-(thiomorpholinomethyl)cyclobutyl]quinazolin-3-yl]-N-isopropyl-acetamide]
9 | +++ (>75) | 1 to 10 | COC1CCN(C[C@H]2C[C@@H](c3ccc4nc(-c5cccc(Cl)c5)n(CC(=O)NC(C)C)c(=O)c4c3)C2)CC1 [Example 10, cis-2-[2-(3-Chlorophenyl)-6-[3-[(4-methoxy-1-piperidyl)methyl]cyclobutyl]-4-oxo-quinazolin-3-yl]-N-isopropyl-acetamide]
10 | ++ (25-75) | 10 to 100 | CC(C)NC(=O)Cn1c(-c2cccc(Cl)c2)nc2ccc(C3CC3CCN3CCCCC3)cc2c1=O (stereo not shown) [Example 3, 2-[2-(3-Chlorophenyl)-4-oxo-6-[2-[2-(1-piperidyl)ethyl]cyclopropyl]quinazolin-3-yl]-N-isopropyl-acetamide]
11 | +++ (>75) | 10 to 100 | CCN(CC)C[C@H]1C[C@@H](c2ccc3nc(-c4cccc(Cl)c4)n(CC(=O)NC(C)C)c(=O)c3c2)C1 [Example 15, cis-2-[2-(3-Chlorophenyl)-6-[3-(diethylaminomethyl)cyclobutyl]-4-oxo-quinazolin-3-yl]-N-isopropyl-acetamide]
12 | +++ (>75) | 1 to 10 | CC(C)NC(=O)Cn1c(-c2cccc(Cl)c2)nc2ccc([C@H]3C[C@@H](CN4CCC(C(F)(F)F)CC4)C3)cc2c1=O [Example 38, cis-2-[2-(3-Chlorophenyl)-4-oxo-6-[3-[[4-(trifluoromethyl)-1-piperidyl]methyl]cyclobutyl]quinazolin-3-yl]-N-isopropyl-acetamide]
13 | +++ (>75) | 10 to 100 | O=C(Cn1c(-c2cccc(Cl)c2)nc2ccc([C@H]3C[C@@H](CN4CCCCC4)C3)cc2c1=O)NC1CC1 [Example 27, cis-2-[2-(3-Chlorophenyl)-4-oxo-6-[3-(1-piperidylmethyl)cyclobutyl]quinazolin-3-yl]-N-cyclopropyl-acetamide]
14 | +++ (>75) | 1 to 10 | CC(C)NC(=O)Cn1c(-c2cccc(Cl)c2)nc2ccc([C@H]3C[C@@H](CN4CCC[C@@H](O)C4)C3)cc2c1=O [Example 33, cis-2-[2-(3-Chlorophenyl)-6-[3-[[(3R)-3-hydroxy-1-piperidyl]methyl]cyclobutyl]-4-oxo-quinazolin-3-yl]-N-isopropyl-acetamide]
15 | +++ (>75) | 1 to 10 | CC(C)NC(=O)Cn1c(-c2cccc(Cl)c2)nc2ccc([C@H]3C[C@@H](CN4CC[C@H](F)C4)C3)cc2c1=O [Example 16, cis-2-[2-(3-Chlorophenyl)-6-[3-[ [(3S)-3-fluoropyrrolidin-1-yl]methyl]cyclobutyl]-4-oxo-quinazolin-3-yl]-N-isopropyl-acetamide]
16 | +++ (>75) | 10 to 100 | CC(C)NC(=O)Cn1c(-c2cccc(Cl)c2)nc2ccc(C3=CC(CN4CCCCC4)C3)cc2c1=O (stereo not shown) [Example 1, 2-(2-(3-Chlorophenyl)-4-oxo-6-(3-(piperidin-1-ylmethyl)cyclobut-1-en-1-yl)quinazolin-3(4H)-yl)-N-isopropylacetamide]
17 | +++ (>75) | 10 to 100 | CC(C)NC(=O)Cn1c(-c2cccc(Cl)c2)nc2ccc(C3CC3CN3CCCCC3)cc2c1=O (stereo not shown) [Example 4, 2-[2-(3-Chlorophenyl)-4-oxo-6-[2-(1-piperidylmethyl)cyclopropyl]quinazolin-3-yl]-N-isopropyl-acetamide]
18 | +++ (>75) | 1 to 10 | CC(C)NC(=O)Cn1c(-c2cccc(Cl)c2)nc2ccc([C@H]3C[C@@H](CN4CC5(CCOCC5)C4)C3)cc2c1=O [Example 41, cis-2-[2-(3-Chlorophenyl)-6-[3-(7-oxa-2-azaspiro[3.5]nonan-2-ylmethyl)cyclobutyl]-4-oxo-quinazolin-3-yl]-N-isopropyl-acetamide]
19 | +++ (>75) | 1 to 10 | CC(C)NC(=O)Cn1c(-c2cccc(Cl)c2)nc2ccc([C@H]3C[C@@H](CN4CCC(C)(O)CC4)C3)cc2c1=O [Example 36, cis-2-[2-(3-Chlorophenyl)-6-[3-[(4-hydroxy-4-methyl-1-piperidyl)methyl]cyclobutyl]-4-oxo-quinazolin-3-yl]-N-isopropyl-acetamide]

Row | Compound | Ki(h-V1a)/Ki(h-V1b) [1] | Ki [2] [nM]
20 | CC(C)NC(=O)Cn1c(-c2cccc(Cl)c2)nc2ccc([C@H]3C[C@@H](CN4C5CCC4CC(O)C5)C3)cc2c1=O (relative stereo) [Example 23, cis-2-[2-(3-Chlorophenyl)-6-[3-[(3-hydroxy-8-azabicyclo[3.2.1]octan-8-yl)methyl]cyclobutyl]-4-oxo-quinazolin-3-yl]-N-isopropyl-acetamide] | +++ (>75) | 1 to 10
